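These data come from cells grown in 96-well plates and exposed to compound for 48 hours at five concentrations. GI50 = concentration required for 50% inhibition of growth.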 The source made the active and inactive calls. No stated cut-off is given here; in the data, active = GI50 up to about 1.1 µM and inactive = higher.
Assays:
Assay in all cases: NCI-60 cell line screen, 48 h
NCI-H522 = test system: NCI-H522
RXF 393 = test system: RXF 393
SK-MEL-5 = test system: SK-MEL-5
Malme-3M = test system: Malme-3M
HOP-92 = test system: HOP-92
UO-31 = test system: UO-31
SK-OV-3 = test system: SK-OV-3
NCI/ADR-RES = test system: NCI/ADR-RES
SW-620 = test system: SW-620
Hs-578T = test system: Hs-578T
HT-29 = test system: HT-29
MDA-N = test system: MDA-N
TK-10 = test system: TK-10
ACHN = test system: ACHN
MOLT-4 = test system: MOLT-4
OVCAR-4 = test system: OVCAR-4
SR = test system: SR
CAKI-1 = test system: CAKI-1
A549 = test system: A549
IGROV-1 = test system: IGROV-1
U-251 = test system: U-251
CCRF-CEM = test system: CCRF-CEM
COLO 205 = test system: COLO 205
SNB-19 = test system: SNB-19
MDA-MB-231 = test system: MDA-MB-231
SF-268 = test system: SF-268
KM12 = test system: KM12
NCI-H460 = test system: NCI-H460
786-0 = test system: 786-0
HCT-15 = test system: HCT-15
MDA-MB-435 = test system: MDA-MB-435
PC-3 = test system: PC-3
HCT-116 = test system: HCT-116
UACC-62 = test system: UACC-62
HOP-62 = test system: HOP-62
OVCAR-8 = test system: OVCAR-8
NCI-H226 = test system: NCI-H226
SN12C = test system: SN12C
OVCAR-3 = test system: OVCAR-3
DU-145 = test system: DU-145
SF-539 = test system: SF-539
M14 = test system: M14
RPMI-8226 = test system: RPMI-8226
BT-549 = test system: BT-549
K562 = test system: K562
SK-MEL-28 = test system: SK-MEL-28
OVCAR-5 = test system: OVCAR-5
A498 = test system: A498
SNB-75 = test system: SNB-75
NCI-H23 = test system: NCI-H23
T47D = test system: T47D
MCF7 = test system: MCF7
UACC-257 = test system: UACC-257
SF-295 = test system: SF-295
SK-MEL-2 = test system: SK-MEL-2
EKVX = test system: EKVX
LOX IMVI = test system: LOX IMVI
HCC 2998 = test system: HCC 2998

In the case of `COC(=O)Cc1c(-c2[nH]c3ccccc3c2CC(=O)OC)[nH]c2ccccc12`, the GI50 (NCI-H522) is reported as > 28.6 µM (inactive), the GI50 (RXF 393) is reported as 30.3 µM (inactive) and the GI50 (SK-MEL-5) is reported as > 52.7 µM (inactive). For the same compound, the GI50 (Malme-3M) was > 55.6 µM (inactive), the GI50 (HOP-92) was > 50.9 µM (inactive) and the GI50 (UO-31) was > 55.3 µM (inactive). For the same compound, the GI50 (SK-OV-3) was > 58.1 µM (inactive), the GI50 (NCI/ADR-RES) was > 57.3 µM (inactive) and the GI50 (SW-620) was > 53.5 µM (inactive). For the same compound, the GI50 (Hs-578T) was > 68.4 µM (inactive), the GI50 (HT-29) was > 59.3 µM (inactive) and the GI50 (MDA-N) was > 53.8 µM (inactive). The GI50 (TK-10) was > 53.2 µM (inactive), the GI50 (ACHN) was > 58.9 µM (inactive) and the GI50 (MOLT-4) was > 47.4 µM (inactive). For the same compound, the GI50 (OVCAR-4) was > 49.9 µM (inactive), the GI50 (SR) was > 55 µM (inactive) and the GI50 (CAKI-1) was > 37.2 µM (inactive). For the same compound, the GI50 (A549) was > 52.6 µM (inactive), the GI50 (IGROV-1) was 45.9 µM (inactive) and the GI50 (U-251) was 51.1 µM (inactive). The GI50 (CCRF-CEM) was > 25.2 µM (inactive), the GI50 (COLO 205) was > 53 µM (inactive) and the GI50 (SNB-19) was 53.5 µM (inactive). The GI50 (MDA-MB-231) was 38.7 µM (inactive), the GI50 (SF-268) was 20.4 µM (inactive) and the GI50 (KM12) was 26.3 µM (inactive). The GI50 (NCI-H460) was > 63 µM (inactive), the GI50 (786-0) was 33.7 µM (inactive) and the GI50 (HCT-15) was > 50.7 µM. The GI50 (MDA-MB-435) was > 54 µM (inactive), the GI50 (PC-3) was > 49 µM (inactive) and the GI50 (HCT-116) was > 54.2 µM (inactive). For the same compound, the GI50 (UACC-62) was > 49 µM (inactive), the GI50 (HOP-62) was 23.2 µM (inactive) and the GI50 (OVCAR-8) was 32.2 µM (inactive). The GI50 (NCI-H226) was > 54.7 µM (inactive), the GI50 (SN12C) was > 59.4 µM (inactive) and the GI50 (OVCAR-3) was 1.41 µM (inactive). For the same compound, the GI50 (DU-145) was > 53 µM (inactive), the GI50 (SF-539) was 67.5 µM (inactive) and the GI50 (M14) was > 52.4 µM (inactive). For the same compound, the GI50 (RPMI-8226) was > 37.7 µM (inactive), the GI50 (BT-549) was > 57.1 µM (inactive) and the GI50 (K562) was 27.7 µM (inactive). For the same compound, the GI50 (SK-MEL-28) was > 55 µM (inactive), the GI50 (OVCAR-5) was > 54.8 µM (inactive) and the GI50 (A498) was 38.3 µM (inactive). The GI50 (SNB-75) was > 57.4 µM (inactive), the GI50 (NCI-H23) was > 55.5 µM (inactive) and the GI50 (T47D) was 2.13 µM (inactive). For the same compound, the GI50 (MCF7) was > 41.1 µM (inactive), the GI50 (UACC-257) was > 56.1 µM (inactive) and the GI50 (SF-295) was > 57.9 µM (inactive). The GI50 (SK-MEL-2) was > 57.7 µM (inactive), the GI50 (EKVX) was 39.4 µM (inactive) and the GI50 (LOX IMVI) was > 58.6 µM (inactive). The GI50 (HCC 2998) was > 57 µM (inactive).
With `CCN(CC)CCN(C)CCc1ccc(Br)cc1` the GI50 (NCI-H522) was 69.3 µM (inactive), the GI50 (RXF 393) was 38.5 µM (inactive) and the GI50 (SK-MEL-5) was 17.2 µM (inactive). For the same compound, the GI50 (Malme-3M) was > 100 µM (inactive), the GI50 (HOP-92) was 27.4 µM (inactive) and the GI50 (UO-31) was 83.8 µM (inactive). The GI50 (SK-OV-3) was > 100 µM (inactive), the GI50 (NCI/ADR-RES) was 79.4 µM (inactive) and the GI50 (SW-620) was 54.8 µM (inactive). For the same compound, the GI50 (Hs-578T) was 21.7 µM (inactive), the GI50 (HT-29) was 24.9 µM (inactive) and the GI50 (MDA-N) was 29.7 µM (inactive). For the same compound, the GI50 (TK-10) was > 100 µM (inactive), the GI50 (ACHN) was > 100 µM (inactive) and the GI50 (MOLT-4) was 53.6 µM (inactive). For the same compound, the GI50 (OVCAR-4) was 97.3 µM (inactive), the GI50 (SR) was > 100 µM (inactive) and the GI50 (CAKI-1) was > 100 µM (inactive). For the same compound, the GI50 (A549) was > 100 µM (inactive), the GI50 (IGROV-1) was > 100 µM (inactive) and the GI50 (U-251) was 41.4 µM (inactive). The GI50 (CCRF-CEM) was 51.8 µM (inactive), the GI50 (COLO 205) was 17.4 µM (inactive) and the GI50 (SNB-19) was > 100 µM (inactive). The GI50 (MDA-MB-231) was 54.3 µM (inactive), the GI50 (SF-268) was > 100 µM (inactive) and the GI50 (KM12) was 51.2 µM (inactive). For the same compound, the GI50 (NCI-H460) was > 100 µM (inactive), the GI50 (786-0) was 53.7 µM (inactive) and the GI50 (HCT-15) was 61.1 µM. The GI50 (MDA-MB-435) was 53.1 µM (inactive), the GI50 (PC-3) was 54 µM (inactive) and the GI50 (HCT-116) was 59.8 µM (inactive). The GI50 (HOP-62) was 29.7 µM (inactive), the GI50 (OVCAR-8) was > 100 µM (inactive) and the GI50 (NCI-H226) was 24.7 µM (inactive). The GI50 (SN12C) was > 100 µM (inactive), the GI50 (OVCAR-3) was > 100 µM (inactive) and the GI50 (DU-145) was > 100 µM (inactive). For the same compound, the GI50 (SF-539) was 30.8 µM (inactive), the GI50 (M14) was 17.2 µM (inactive) and the GI50 (RPMI-8226) was > 100 µM (inactive). For the same compound, the GI50 (BT-549) was 42.5 µM (inactive), the GI50 (K562) was 25.7 µM (inactive) and the GI50 (SK-MEL-28) was 41.7 µM (inactive). The GI50 (OVCAR-5) was 48 µM (inactive), the GI50 (A498) was 13.8 µM (inactive) and the GI50 (SNB-75) was 46.7 µM (inactive). The GI50 (NCI-H23) was > 100 µM (inactive), the GI50 (T47D) was > 100 µM (inactive) and the GI50 (MCF7) was 48.8 µM (inactive). The GI50 (UACC-257) was 37.6 µM (inactive), the GI50 (SF-295) was 51.5 µM (inactive) and the GI50 (SK-MEL-2) was > 100 µM (inactive). For the same compound, the GI50 (EKVX) was > 100 µM (inactive), the GI50 (LOX IMVI) was 42.9 µM (inactive) and the GI50 (HCC 2998) was > 100 µM (inactive).

Reference: ChEMBL document CHEMBL1201862, “PubChem BioAssay data set” (2004)
